Several values for one entry are separate records, joined by “and”; a condition that tells them apart may be missing. Equal entries are not always repeated. ± gives the uncertainty stated by the source.
Test: xn = mol fraction of the nth substance listed

CC(C)O + O
Conditions | viscosity
308.15 K, 101 kPa, x2 = 0.26 | 1.616 ± 0.017 mPa·s
308.15 K, 101 kPa, x2 = 0.4678 | 1.856 ± 0.02 mPa·s
308.15 K, 101 kPa, x2 = 0.6079 | 2.072 ± 0.023 mPa·s
308.15 K, 101 kPa, x2 = 0.685 | 2.169 ± 0.024 mPa·s
308.15 K, 101 kPa, x2 = 0.7249 | 2.178 ± 0.024 mPa·s
308.15 K, 101 kPa, x2 = 0.805 | 2.088 ± 0.023 mPa·s
308.15 K, 101 kPa, x2 = 0.89 | 1.675 ± 0.019 mPa·s
308.15 K, 101 kPa, x2 = 0.9549 | 1.23 ± 0.013 mPa·s
313.15 K, 101 kPa, x1 = 0.01 | 0.733 ± 0.005 mPa·s
313.15 K, 101 kPa, x1 = 0.02 | 0.823 ± 0.006 mPa·s
313.15 K, 101 kPa, x1 = 0.032 | 0.933 ± 0.03 mPa·s
313.15 K, 101 kPa, x1 = 0.05 | 1.098 ± 0.008 mPa·s
313.15 K, 101 kPa, x1 = 0.07069 | 1.27 ± 0.009 mPa·s
313.15 K, 101 kPa, x1 = 0.1 | 1.458 ± 0.01 mPa·s
313.15 K, 101 kPa, x1 = 0.11 | 1.495 ± 0.046 mPa·s
313.15 K, 101 kPa, x1 = 0.2 | 1.789 ± 0.012 mPa·s
313.15 K, 101 kPa, x1 = 0.23 | 1.821 ± 0.056 mPa·s
313.15 K, 101 kPa, x1 = 0.41 | 1.731 ± 0.054 mPa·s
313.15 K, 101 kPa, x2 = 0.1049 | 1.365 ± 0.015 mPa·s
313.15 K, 101 kPa, x2 = 0.26 | 1.412 ± 0.015 mPa·s
313.15 K, 101 kPa, x2 = 0.4678 | 1.604 ± 0.017 mPa·s
313.15 K, 101 kPa, x2 = 0.6079 | 1.788 ± 0.019 mPa·s
313.15 K, 101 kPa, x2 = 0.685 | 1.855 ± 0.02 mPa·s
313.15 K, 101 kPa, x2 = 0.7249 | 1.858 ± 0.02 mPa·s
313.15 K, 101 kPa, x2 = 0.805 | 1.781 ± 0.019 mPa·s
313.15 K, 101 kPa, x2 = 0.89 | 1.447 ± 0.016 mPa·s
313.15 K, 101 kPa, x2 = 0.9549 | 1.076 ± 0.012 mPa·s
313.15 K, 101.33 kPa, x1 = 0.015 | 0.7848 ± 0.026 mPa·s
313.15 K, 101.33 kPa, x1 = 0.05 | 1.113 ± 0.029 mPa·s
313.15 K, 101.33 kPa, x1 = 0.075 | 1.292 ± 0.033 mPa·s
313.15 K, 101.33 kPa, x1 = 0.1 | 1.453 ± 0.037 mPa·s
313.15 K, 101.33 kPa, x1 = 0.15 | 1.665 ± 0.043 mPa·s
313.15 K, 101.33 kPa, x1 = 0.2 | 1.777 ± 0.046 mPa·s
313.15 K, 101.33 kPa, x1 = 0.25 | 1.823 ± 0.047 mPa·s
313.15 K, 101.33 kPa, x1 = 0.3 | 1.822 ± 0.047 mPa·s
313.15 K, 101.33 kPa, x1 = 0.4 | 1.756 ± 0.045 mPa·s
313.15 K, 101.33 kPa, x1 = 0.5 | 1.649 ± 0.042 mPa·s
313.15 K, 101.33 kPa, x1 = 0.6 | 1.539 ± 0.04 mPa·s
313.15 K, 101.33 kPa, x1 = 0.7 | 1.446 ± 0.037 mPa·s
313.15 K, 101.33 kPa, x1 = 0.8 | 1.375 ± 0.035 mPa·s
313.15 K, 101.33 kPa, x1 = 0.85 | 1.35 ± 0.035 mPa·s
313.15 K, 101.33 kPa, x1 = 0.9 | 1.327 ± 0.034 mPa·s
313.15 K, 101.33 kPa, x1 = 0.925 | 1.331 ± 0.034 mPa·s
313.15 K, 101.33 kPa, x1 = 0.95 | 1.332 ± 0.034 mPa·s
313.15 K, 101.33 kPa, x1 = 0.975 | 1.336 ± 0.034 mPa·s
318.15 K, 101 kPa, x1 = 0.01 | 0.664 ± 0.005 mPa·s
318.15 K, 101 kPa, x1 = 0.02 | 0.739 ± 0.005 mPa·s
318.15 K, 101 kPa, x1 = 0.032 | 0.836 ± 0.028 mPa·s
318.15 K, 101 kPa, x1 = 0.05 | 0.966 ± 0.007 mPa·s
318.15 K, 101 kPa, x1 = 0.07069 | 1.103 ± 0.008 mPa·s
318.15 K, 101 kPa, x1 = 0.1 | 1.261 ± 0.009 mPa·s
318.15 K, 101 kPa, x1 = 0.11 | 1.315 ± 0.042 mPa·s
318.15 K, 101 kPa, x1 = 0.2 | 1.539 ± 0.01 mPa·s
318.15 K, 101 kPa, x1 = 0.23 | 1.579 ± 0.05 mPa·s
318.15 K, 101 kPa, x1 = 0.41 | 1.484 ± 0.047 mPa·s
318.15 K, 101 kPa, x2 = 0.1049 | 1.182 ± 0.013 mPa·s
318.15 K, 101 kPa, x2 = 0.26 | 1.237 ± 0.013 mPa·s
318.15 K, 101 kPa, x2 = 0.4678 | 1.397 ± 0.015 mPa·s
318.15 K, 101 kPa, x2 = 0.6079 | 1.561 ± 0.017 mPa·s
318.15 K, 101 kPa, x2 = 0.685 | 1.604 ± 0.018 mPa·s
318.15 K, 101 kPa, x2 = 0.7249 | 1.598 ± 0.018 mPa·s
318.15 K, 101 kPa, x2 = 0.805 | 1.539 ± 0.019 mPa·s
318.15 K, 101 kPa, x2 = 0.89 | 1.255 ± 0.015 mPa·s
318.15 K, 101 kPa, x2 = 0.9549 | 0.95 ± 0.012 mPa·s
323.15 K, 100 kPa, x1 = 0.2 | 1.375 ± 0.0041 mPa·s and 1.3 ± 0.0039 mPa·s
323.15 K, 100 kPa, x1 = 0.3 | 1.387 ± 0.0042 mPa·s
323.15 K, 100 kPa, x2 = 0.1 | 1.03 ± 0.026 mPa·s
323.15 K, 100 kPa, x2 = 0.2 | 1.08 ± 0.027 mPa·s
323.15 K, 100 kPa, x2 = 0.3 | 1.11 ± 0.028 mPa·s
323.15 K, 100 kPa, x2 = 0.4 | 1.21 ± 0.031 mPa·s
323.15 K, 100 kPa, x2 = 0.5 | 1.26 ± 0.033 mPa·s
323.15 K, 100 kPa, x2 = 0.6 | 1.37 ± 0.035 mPa·s
323.15 K, 100 kPa, x2 = 0.7 | 1.37 ± 0.036 mPa·s
323.15 K, 100 kPa, x2 = 0.8 | 1.37 ± 0.035 mPa·s
323.15 K, 100 kPa, x2 = 0.9 | 1.14 ± 0.029 mPa·s
323.15 K, 101 kPa, x1 = 0.01 | 0.604 ± 0.004 mPa·s
323.15 K, 101 kPa, x1 = 0.02 | 0.668 ± 0.005 mPa·s
323.15 K, 101 kPa, x1 = 0.05 | 0.856 ± 0.006 mPa·s
323.15 K, 101 kPa, x1 = 0.07069 | 0.969 ± 0.007 mPa·s
323.15 K, 101 kPa, x1 = 0.1 | 1.101 ± 0.008 mPa·s

— the CheMixHub viscosity set
